Our source for the IC50 and viability, T/C values is PubChem BioAssay AID1963429 (Molecular Pharmacology Branch, DTP, NCI, 2024).

“And” between values parts separate entries of the source, which are not always exact repeats. Identical values can stand only once. Where only a bound is given, the exact number is not on record here.

In this assay the test system is 126254-015-R-J1-PDC complex spheroid growth, % test/control. The experiment in a line: Anticancer human tumor 126254-015-R-J1-PDC patient-derived soft tissue sarcoma cell line growth inhibition [Asc]. The conditions noted are these: for viability, T/C: stronger effect = lower value. In a few lines:
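Stromal components (HUVEC and hMSC) are co-assembled with the cancer cells into multicellular spheroids. Drugs are then added singly or paired, at concentrations falling by half-log increments from a clinically achievable maximum, capped at 10 microM without known Cmax.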
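Also: spheroids exposed to compound for seven days.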
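For viability, T/C in this document: 100% = DMSO vehicle control wells.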

With `Cc1nc(N2CCC3(CC2)COC(C)C3N)c(CO)nc1Sc1ccnc(N)c1Cl` (configuration not stated) + Cc1c(S(C)(=O)=O)c(-c2cc(F)cc(N3CCN(c4ccc(NS(=O)(=O)c5ccc(NC(CCN6CCC(C(=O)OCCCP(=O)(O)O)CC6)CSc6ccccc6)c(S(=O)(=O)C(F)(F)F)c5)cc4)CC3)c2)c(-c2ccc(Cl)cc2)n1C(C)C, the half-inhibitory concentration (IC50) amounted to 765 nM (curve of first compound, second compound 0.1 µM); 451 nM (curve of first compound, second compound 0.316 µM); 501 nM (curve of first compound, second compound 1 µM); 362 nM (curve of first compound, second compound 3.16 µM); 465 nM (curve of first compound, second compound 10 µM). Besides, the viability, T/C reads like this: (second compound 0.1 µM, first compound 0.00949 µM) 88.7%; (second compound 0.1 µM, first compound 0.03 µM) 82.2%; (second compound 0.1 µM, first compound 0.0949 µM) 68.6%; (second compound 0.1 µM, first compound 0.3 µM) 56.7%; (second compound 0.1 µM, first compound 0.949 µM) 51.9%; (second compound 0.1 µM, first compound 3 µM) 34.4%. The viability, T/C reads like this: (second compound 0.316 µM, first compound 0.00949 µM) 83.1%; (second compound 0.316 µM, first compound 0.03 µM) 77.6%; (second compound 0.316 µM, first compound 0.0949 µM) 67.8%; (second compound 0.316 µM, first compound 0.3 µM) 55.3%; (second compound 0.316 µM, first compound 0.949 µM) 41%; (second compound 0.316 µM, first compound 3 µM) 34.2%. Further, the viability, T/C reads like this: (second compound 1 µM, first compound 0.00949 µM) 80.8%; (second compound 1 µM, first compound 0.03 µM) 75.7%; (second compound 1 µM, first compound 0.0949 µM) 72.2%; (second compound 1 µM, first compound 0.3 µM) 54.4%; (second compound 1 µM, first compound 0.949 µM) 43.2%; (second compound 1 µM, first compound 3 µM) 30.7%. Further, the viability, T/C (second compound 3.16 µM, first compound 0.00949 µM) was 78.6%; the viability, T/C (second compound 3.16 µM, first compound 0.03 µM) was 80.7%; the viability, T/C (second compound 3.16 µM, first compound 0.0949 µM) was 70.4%; the viability, T/C (second compound 3.16 µM, first compound 0.3 µM) is 51.7%; the viability, T/C (second compound 3.16 µM, first compound 0.949 µM) is 40.1%; the viability, T/C (second compound 3.16 µM, first compound 3 µM) was 34.6%. The viability, T/C runs as follows: (second compound 10 µM, first compound 0.00949 µM) 79.2%; (second compound 10 µM, first compound 0.03 µM) 84.7%; (second compound 10 µM, first compound 0.0949 µM) 74%; (second compound 10 µM, first compound 0.3 µM) 56.1%; (second compound 10 µM, first compound 0.949 µM) 40.2%; (second compound 10 µM, first compound 3 µM) 32%.
`C=CC(=O)N1CCN(c2nc(=O)n(-c3c(C)ccnc3C(C)C)c3nc(-c4c(O)cccc4F)c(F)cc23)C(C)C1` (configuration not stated): the viability, T/C runs as follows: (compound 0.0316 µM) 93.4% and 99.9% and 105%; (compound 0.1 µM) 106% and 97.6% and 110%; (compound 0.316 µM) 107% and 115% and 109%; (compound 1 µM) 102% and 111% and 112%; (compound 3.16 µM) 120% and 116% and 110%; (compound 10 µM) 88.8% and 91% and 102%. In addition, the 50% inhibitory concentration (IC50) (curve of compound) is over 10000 nM.
